Measured values published in paper PMC5338256, “D-form KLKLLLLLKLK-NH2 peptide exerts higher antimicrobial properties than its L-form counterpart via an association with bacterial cell wall components” (Scientific Reports, 2017).
Converted amounts (≈) assume the structure as drawn. Non-standard residues stand in square brackets, D forms with d. Residues, ends and D or L forms follow the SMILES beside them.

Legend:
E. coli = assay type: cell-based, Escherichia coli W3110 (NBRC12713); conditions: pH 6
Protocol: S. aureus (NBRC100910), E. coli W3110 (NBRC12713), E. hirae (NBRC3181), C. albicans (NBRC1385), and S. Typhimurium 14028s (ATCC14028)[2] were used in this study. S. aureus, E. coli, and S. Typhimurium were grown at 37 °C with aeration in Muller-Hinton II medium (BD Biosciences). E. hirae was grown at 37 °C in LB medium (Nacalai Tesque, Inc.) containing 0.5% glucose (w/v). C. albicans was grown at room temperature with aeration in YM medium (BD Biosciences). All experiments were conducted using bacterial cells and C. albicans in the logarithmic-phase of growth.
Bacterial suspensions in Muller-Hinton II medium were adjusted to an optical density of 550 nm (OD550) = 0.0011. C. albicans suspensions in YM medium were adjusted to OD650 = 0.033. Peptides were serially diluted in 10 mM phosphate buffer (pH 6.0) containing 130 mM sodium chloride, 0.2% bovine serum albumin, and 2.56% dimethyl sulfoxide. The peptide solution (100 μl) was mixed with 100 μl of bacteria or C. albicans suspensions. Bacterial cultures were incubated for one day at 37 °C. C. albicans cultures were incubated for two days at room temperature. Cell growth was monitored optically and the MIC was determined.

S. aureus [1] = test: Assay for membrane permeability (ethidium influx); assay type: cell-based, Staphylococcus aureus; conditions: 20 μg/ml peptide, fluorescence for 180 sec, 10 mM phosphate buffer pH 6.0, 130 mM NaCl, 0.2% BSA
Protocol: To examine membrane permeability, ethidium influx rates were examined as previously described. S. aureus suspension cultures were adjusted to an OD600 of 0.4 in 10 mM phosphate buffer (pH 6.0) containing 130 mM sodium chloride and 0.2% bovine serum albumin. Then, peptide in dimethyl sulfoxide (8 μl) or dimethyl sulfoxide alone (8 μl) was added to 2 ml of S. aureus suspensions. At 30 sec after the addition of peptide, ethidium bromide was added to a final concentration of 5 μg/ml, and fluorescence of the ethidium-nucleic acid complex was monitored using a RF-5300PC spectrofluorometer (Shimadzu). Excitation and emission wavelengths were 545 nm with 5 nm slits and 600 nm with 10 nm slits, respectively.

S. aureus [2] = test: Inhibition of antimicrobial activity by bacterial cell wall components; assay type: cell-based, Staphylococcus aureus; conditions: D-form 1.9 μg/ml, L-form 7.5 μg/ml, 10 min
Protocol: Bacteria and C. albicans were suspended in growth medium. Peptides suspended in dimethyl sulfoxide were serially diluted in 10 mM phosphate buffer (pH 6.0) containing 130 mM sodium chloride, 0.2% bovine serum albumin as described previously. In order to examine the effects of bovine serum albumin on the assay, 10 mM phosphate buffer (pH 6.0) containing 130 mM sodium chloride, was used for the dilution of peptides. Peptide solution (500 μl) was added to 500 μl of bacteria suspensions and then the mixture was incubated at 37 °C for 10 min. In order to examine the effects of culture medium components on the assay, bacteria suspension was prepared with 10 mM phosphate buffer (pH 6.0) containing 130 mM sodium chloride. Alternatively, 500 μl of peptide solution was added to 500 μl of C. albicans suspensions and the mixture was incubated at room temperature for 10 min. The inhibitory effects of the bacterial components were analyzed by incubating 450 μl of S. aureus suspension with 500 μl of peptide solution plus 50 μl of inhibitor samples at 37 °C for 10 min. Then, the peptide/bacteria suspensions were diluted and plated onto LB agar, LB agar containing 0.5% glucose, or YM agar. After cultivation of the plates, colony forming units (CFU) in the peptide/bacteria suspension were calculated based on the average of triplicate plates.
Peptidoglycan (120 μg) prepared from S. aureus was added to 1 mg/ml of lysozyme in phosphate buffered saline (150 μl)[33]. Peptidoglycan without lysozyme and lysozyme without peptidoglycan were also prepared as controls. Samples were incubated overnight at 37 °C, and then incubated at 100 °C for 15 min to inactivate lysozyme. For heat-inactivation of peptidoglycan, 600 μg of peptidoglycan suspended in water (300 μl) was incubated at 100 °C for 15 min. The samples were sonicated for 10 sec at setting 1 using a Branson sonifier model S-150D. These samples were used as inhibitor samples for antimicrobial activity assays.

Staphylococcus aureus = conditions: cited from earlier work
Text: We determined minimum inhibitory concentrations (MICs) of other ant ...

[3] = cited from earlier work

## CC(C)C[C@@H](NC(=O)[C@H](N)CCCCN)C(=O)N[C@H](CCCCN)C(=O)N[C@H](CC(C)C)C(=O)N[C@H](CC(C)C)C(=O)N[C@H](CC(C)C)C(=O)N[C@H](CC(C)C)C(=O)N[C@H](CC(C)C)C(=O)N[C@H](CCCCN)C(=O)N[C@H](CC(C)C)C(=O)N[C@H](CCCCN)C(N)=O [D-form KLKLLLLLKLK-NH2] (H-[dK][dL][dK][dL][dL][dL][dL][dL][dK][dL][dK]-NH2; N-terminus assumed)
E. coli
  MIC: 8 µg/mL (≈ 6.05 µM)
S. aureus [1]
  ethidium bromide influx rate: higher
S. aureus [2]; 40 μg/ml S. aureus peptidoglycan
  inhibition of the antimicrobial effect by S. aureus peptidoglycan: almost inhibited
S. aureus [2]
  inhibition of the antimicrobial activity by lipopolysaccharide from E. coli: preferentially inhibited
  inhibition of the antimicrobial activity by peptidoglycan from E. coli: weak inhibitory effect
  inhibition of the antimicrobial activity by synthetic E. coli lipid A: preferentially inhibited
  inhibition of the antimicrobial effect by lipoteichoic acid from S. aureus: inhibited the antimicrobial effect of both D-form and L-form peptides similarly
Staphylococcus aureus
  antimicrobial activity, D-form compared with L-form: higher antimicrobial activity
[3]
  persistence in bacterial culture medium, D-form compared with L-form: persist longer
